Test results as given in EP2889299A1, “Fluorescent red emitting functionalizable pH probes” (Paris Sciences et Lettres - Quartier Latin, priority 2013, dated 2015).
Like-named read-outs stand apart in the source and are kept apart here.

Key:
[1] = Optical properties of the second (blue) fluorophore; assay type: physicochemical; conditions: measured in CH3CN/H2O
Source text: In addition to having the correct absorption and emission wavelengths, the chosen second fluorophore must feature a terminal alkyne to make it "clickable" with the azide-containing pH probe I-1. The acridone 5 was selected, having the following optical properties (measured in CH3CN/H2O): […]

F98 cells = test: Dose response by flow cytometry (probe internalization); assay type: cell-based, rat; conditions: F98 cells incubated for two hours
Method: Cell calture for flow cytometry, dose response and cellular imaging: F98 and CHO-K1 cell lines (purchased from ATCC) were maintained at 37°C in 5% CO2 in DMEM/F-12 nutrient medium (Invitrogen, Cergy Pontoise, France) supplemented with 2% (v/v) heat-inactivated fetal bovine serum (Invitrogen) and 100 µg/mL streptomycine and 100 units/mL penicillin (Invitrogen).
Fluorescence Activated Cell Sorting Analyses: F98 cells were incubated with various concentrations of pH probes in DMEM/F-12 culture medium without serum at 37 °C for 2h. The cells were washed with PBS to remove excess fluorescent probe and were treated with 0.05% Trypsin-EDTA for 2 min at 37°C to detach the cells from the surface, and centrifuged at 200 g in DMEM/F-12 culture medium before suspension in PBS. Flow cytometry analyses were performed with live cells using an Accuri C6 flow cytometer (BD Biosciences, Le Pont de Claix, France). The data was obtained and analysed using CFlow Sampler (BD Biosciences). Live cells were gated by forward/side scattering for a total of 10,000 events.
Undifferentiated malignant glioma rat cells (F98) were incubated with probe I-1 for two hours at increasing concentrations and the fluorescence intensity measured. Results are represented in figure 7.

[2] = pKa calculation from fluorescence intensity versus pH (Hill equation fit); assay type: physicochemical; conditions: fluorescence intensity at λem,max versus pH, 25°C
Method: pKa calculations. pKa values were calculated by plotting the fluorescence intensity at λem.,max versus the pH. The data was fit to the Hill Equation (equation 4) and the pKa taken as x1/2 as per the Hill equation. base + ((max-base))/(1 + (((x1/2)/(x)))^rate) [formula] • base = y value at minimum x-value • max = y value at maximum x-value • rate = rise rate of the curve • x1/2 = x value at which y = (base + max)/2.
The dependence of fluorescence enhancement on pH was determined for probes I-1, I-3 and I-4. Results are represented in figure 4A, 4B, and 4C respectively. Curve fitting was based on a modified Hill equation from which pKa values were calculated.

[3] = Absorption spectra and molar extinction coefficient (Beer Lambert law); assay type: physicochemical; conditions: for λabs: maximum absorption wavelength
Method: (§1) All the solvents were of analytical grade. Chemicals were purchased from commercial sources. The salts used in stock solutions of metal ions were CaCl2·2H2O, CuCl2·2H2O, FeCl3·6H2O, MgCl2·6H2O, MnCl2·4H2O, ZnBr2. ^1H-NMR and ^13C-NMR were measured on a Bruker avance III-300 MHz spectrometer with chemical shifts reported in ppm (TMS as internal standard). Mass spectra were measured on a Focus GC / DSQ II spectrometer (ThermoScientific) for IC and an API 3000 spectrometer (Applied Biosystems, PE Sciex) for ES. All pH measurements were made with a Mettler Toledo pH-Meter. Fluorescence spectra were recorded on a JASCO FP-8300 spectrofluorometer. Absorption spectra were determined on a VARIAN CARY 300 Bio UV-Visible spectrophotometer. All measurements were done at a set temperature of 25°C. The purity of the dyes were checked by RP-HPLC C-18, eluant: ACN 0.1% TFA/Water 0.1 % TFA, method: 20/80 to 100/0 within 20 min. then 100/0 for 10 min. detection at λabs= 254 nm.
Molar extinction coefficient calculations. Extinction coefficients (ε) were calculated using the Beer Lambert law (equation 3) plotting optical density/absorption versus concentration for the pH probes. The gradient of the plot is equal to ε. A = εc1 [formula] • A = optical density/absorption • ε = extinction coefficient = gradient of the plot • c = concentration • 1= optical path length (1 cm)
The dependence of absorption on pH for probe I-1 was determined in a MOPS buffered aqueous solution. Results are represented in figure 2.

[4] = Fluorescence spectra, quantum yield and dynamic range; assay type: physicochemical; conditions: for λem: excitation at 535 nm, maximum emission wavelength; for Φ: MOPS 30 mM, KCl 100 mM, reference Rhodamine 101, excitation 535 nm; for Dynamic Range: maximal value of (I-Imin)/Imin; for ΦON/ ΦOFF: ratio of quantum yields at pH 4 and pH 10
Method: as §1
Dynamic range. The term dynamic range refers to the maximal value of equation 1 where I is the observed fluorescence intensity and Imin is the minimum fluorescence intensity observed for that probe. The larger the dynamic range the better as it indicates good differentiation between "on" and "off' states. Dynamic Range = ((I-Imin))/(Imin) [formula]
Quantum yield calculations. The fluorescence quantum yields (Φ) were calculated from the gradient of integrated fluorescence intensity (545 to 700 nm) versus optical density. Rhodamine 101 (Φ = 1.0 in absolute ethanol) was used as a reference standard (ref) with the excitation wavelength at 535 nm. Equation 2 was used to determine the Φ values. Φ = Φref (grad.)/(grad.ref).(η^2)/(ηref^2) [formula] • Φ = quantum yield • η = refractive index of the solvent system (η (H2O) = 1.33, ηref (EtOH) = 1.36) grad. = gradient of the curve
ΦON (pH = 4) and ΦOFF (pH = 10) were calculated for each pH probe in MOPS 30 mM, KCl 100 mM.
The dependence of fluorescence intensity on pH for probe I-1 was determined in a MOPS buffered aqueous solution after excitation at 535 nm. Results are represented in figure 3.

[5] = Fluorescence of the ratiometric dual-fluorophore probe as a function of pH; assay type: physicochemical
Source text: • Figure 1 is a drawing schematically representing the red-emitting pH probe of the invention. • Figure 2 is a graph representing the dependence of absorption on pH in a MOPS buffered aqueous solution for compound I-1. • Figure 3 is a graph representing the dependence of fluorescence intensity on pH in a MOPS buffered aqueous solution after excitation at 535 nm, for compound I-1. • Figure 4A-4C are graphs representing the dependence of fluorescence enhancement on pH for compounds I-1 (4A), I-3 (4B) and I-4 (4C). • Figure 5 is a graph representing fluorescence intensities of compound I-1 (5 µM) in presence of a range of metal ions in a MOPS buffer (MOPS 30 mM, KCl 100 mM, pH 7.2). The concentration of cations is 10^-3 M. • Figure 6 is a graph representing CCK-8 test results for compound I-1 indicating cytotoxicity. The probe was incubated with Chinese hamster ovary cells (CHO-K1) for 2 hours at 37°C. • Figure 7 is a dose response diagram for F98 cells incubated with pH probe I-1. • Figure 8 is a graph representing the fluorescence spectrum for the dual-fluorophore I-5 (5 µM) measured in an aqueous MOPS buffered solution/MeOH, 91/9. • Figure 9 is a plot of I∼612/I439 versus pH at excitation wavelength 405 nm for compound I-5. I∼612 and I439 are the respective fluorescence intensities of the system at ∼612nm corresponding to the X-rhodamine red-emission and at 439nm corresponding to the acridone blue-emission.
The peak centred at 439 nm corresponding to emission from the acridone fluorophore and the peak centred at 612 nm to that of the X-rhodamine. The blue acridone emission is not dependent on pH while the red X-rhodamine emission is dependent on pH.
In order to visualize the intensity ratio between the two emission signals a plot of I∼612/I439 versus pH was plotted (figure 9). I∼612 and I439 are the respective fluorescence intensities of the system at ∼612 nm corresponding to the X-rhodamine red-emission and at 439 nm corresponding to the acridone blue-emission.

[6] = in absolute ethanol; reference standard; cited from earlier work
CHO-K1 cells = test: Cytotoxicity, CCK-8 cell counting kit; assay type: cell-based, Chinese hamster; conditions: 1% Triton; positive control
Method: Cytotoxicity: CHO-K1 cells (20,000 per well) were seeded in 96 multiple well plates for 24 h before the experiment. Cells (40,000 per well) were incubated with the fluorescent compounds in 100 µL DMEM for 2h at 37°C. The incubation medium was replaced by 100µL fresh DMEM containing 10% of cell-counting solution (Dojindo Laboratories) and further incubated for 2h at 37°C. The absorbance was measured at 450 nm (reference at 620 nm) and was directly related to the number of living cells. Experiments were done in triplicate and repeated twice.
To determine cytotoxicity a CCK-8 cell counting kit was used. This can be bought commercially and relies upon the reduction of a highly water-soluble tetrazolium salt (WST-8). This compound is slightly yellow in color, however, upon reduction to its corresponding formazan species it becomes bright orange. The optical density of the absorbance corresponding to the orange formazan species, detected at 450nm, can be measured and correlated to the number of living cells. A decrease in optical density corresponds directly to a decrease in the quantity of formazan molecules indicating fewer living cells due to cell death/cytotoxicity. The reduction of WST-8 is achieved by exploiting the redox reactions of NAD+, a coenzyme found in all living cells. Cellular NAD+ is constantly being reduced to NADH by dehydrogenases as a natural part of a cell's metabolism. […]

[7] = 5 µM, aqueous MOPS buffered solution/MeOH, 91/9

Compound	pKa [2]	ε ([3]; OFF, deprotonated form: pH 10)	λabs ([3]; OFF, deprotonated form: pH 10)	ε ([3]; ON, protonated form: pH 4)	λabs ([3]; ON, protonated form: pH 4)	λem ([4]; OFF, deprotonated form: pH 10)	Φ ([4]; OFF, pH 10)	Φ ([4]; ON, pH 4)	λem ([4]; ON, protonated form: pH 4)	Dynamic Range [4]	ΦON/ ΦOFF [4]	other results
C#CCCCn1c2ccccc2c(=O)c2ccccc21	–	–	–	–	–	–	–	–	–	–	–	λabs [1]: 408 nm; λem [1]: 425 nm; FWHM ([1]; full width at half maximum): 49
[N-]=[N+]=NCCCNC(=O)c1cc(C2=c3cc4c5c(c3Oc3c2cc2c6c3CCCN6CCC2)CCC[N+]=5CCC4)ccc1O [Compound I-1]	3.96	26706 M⁻¹ cm⁻¹	574 nm	26742 M⁻¹ cm⁻¹	580 nm	596 nm	0.009	0.254	600 nm	88	28	fluorescence intensity of cells at increasing concentrations of probe (F98 cells): increase of fluorescence with increasing concentration of probe; absorbs light at ([3]; red region of the spectrum): 580 nm
C#CCOC(=O)N1CCN(C(=O)c2cc(C3=c4cc5c6c(c4Oc4c3cc3c7c4CCCN7CCC3)CCC[N+]=6CCC5)ccc2O)CC1 [Compound I-3]	7.68	49298 M⁻¹ cm⁻¹	575 nm	72405 M⁻¹ cm⁻¹	580 nm	602 nm	0.016	0.640	601 nm	86	40	–
C#CCN1CCN(C(=O)c2cc(C3=c4cc5c6c(c4Oc4c3cc3c7c4CCCN7CCC3)CCC[N+]=6CCC5)ccc2O)CC1 [Compound I-4]	7.64	20712 M⁻¹ cm⁻¹	574 nm	35109 M⁻¹ cm⁻¹	580 nm	600 nm	0.023	0.798	601 nm	98	35	–
O=C(NCCCn1cc(CCCn2c3ccccc3c(=O)c3ccccc32)nn1)c1cc(C2=c3cc4c5c(c3Oc3c2cc2c6c3CCCN6CCC2)CCC[N+]=5CCC4)ccc1O [Compound I-5]	–	–	–	–	–	–	–	–	–	–	–	emission peak of the X-rhodamine [5, 7]: 612 nm; emission peak of the acridone fluorophore [5, 7]: 439 nm; I∼612/I439 ratio ([5]; excitation wavelength 405 nm, as the system was acidified): four-fold increase
O=C(O)c1ccccc1C1=c2cc3c4c(c2Oc2c1cc1c5c2CCCN5CCC1)CCC[N+]=4CCC3.[Cl-] [Rhodamine 101]	–	–	–	–	–	–	–	–	–	–	–	Φ [6]: 1.0
Triton	–	–	–	–	–	–	–	–	–	–	–	cell death (CHO-K1 cells): total cell death
